In patent publication US20260033491A1, “FUNGAL SPORE FORMULATIONS INCLUDING CARRIER FLUIDS” (priority 2018, published 2026):
Marks after values point to notes of the source that are not given here.

Tested on: Purpureocillium lilacinum spores
Assay: Spore viability (germination rate) of Purpureocillium lilacinum spores dispersed in fluid and stored at 30° C.
Format: cell-based
Conditions: P. lilacinum spores in fluid
Experimental: 3 g of Purpureocillium lilacinum pure spore powder were transferred into a formulation vessel (IKA Type DT-20 mixing vessel with dispersion tool for Ultra Turrax) using a sterile spoon. 12 mL of fluid were added into the respective formulation vessel and dispersed using ultra turrax tube drive control for 1 min at 3000 rpm; change direction after 30 sec. After this 2.8 mL were transferred in four sample bottles (Wheaton Serum vial, Type I) leaving little headspace and closed tight using crimpneck caps (Macherey—Nagel type N 13). Afterwards all sample bottles were transferred to an incubator set at 30° C. and stored for a given time.
In regular intervals a sample was retrieved from the storage location and analyzed for spore viability. For this purpose, the original samples were thoroughly homogenized. Aliquots of 0.25 g or 250 μL of each sample were transferred into 50 mL falcon tubes. The tubes were filled up to 25 g using a sterile aqueous solution containing 2% Tween 80 and homogenized by vortexing to achieve the first dilution step (1:100 dilution). This dilution was used for further dilution and spotting on agar.
For these samples, an alternative dispersion/dilution method was applied where the oil phase was stripped from the spores first: 0.25 g or 250 μL of sample are weighted into a 2 mL Eppendorf tube, and 0.5 mL of 2% Tween 80 is added, and the mixture is transferred into an Eppendorf centrifuge where it is centrifuged for 1 min at 10.000 rpm. The supernatant (=upper oily phase) is discarded by using a pipette. […] 250 μL or 0.25 g of each sample were transferred into a sterile 50 mL Falcon tube. The tubes were filled up to 25 g using a sterile aqueous solution containing 2% Tween 80 and homogenized by vortexing to achieve the first dilution step (1:100 dilution). This dilution was used for further dilution and spotting on agar.
For evaluation of spore germination rate prepare a 1:30000 dilution based on the 1:100 dilution achieved by multiple automated dilution (pipetting robot, 96 well plate). Afterwards 12×12 cm agar plates were taken and spotted with 10 times 5 μL of each sample using an automated 12-Channel pipet. Wait until liquid is soaked up by agar and transfer agar plate to an incubator and incubate at 25° C. for 17 hours. Open the plate and place it under the microscope. Randomly chose one area per spot and record the number of germinated and non-germinated spores that are within the designated field. At least 200 spores per sample need to be evaluated. If needed count more than one field per spot.

| Structure (SMILES) | spore viability [%] at day 1 [%] | spore viability [%] after 5-6 w (35-40 d) (storage at 30° C., 35-40 d) [%] | spore viability [%] after 3 m (87-92 d) (storage at 30° C., 87-92 d) [%] | spore viability [%] taken after 7 m of storage (storage at 30° C., 7 m) | spore viability [%] after 2 w (12-15 d) (storage at 30° C., 12-15 d) [%] | spore viability [%] after 1 m (27-28 d) (storage at 30° C., 27-28 d) [%] | spore viability [%] after 2 m (51-55 d) (storage at 30° C., 51-55 d) [%] |
| --- | --- | --- | --- | --- | --- | --- | --- |
| CCCCOC(=O)CCCCC(=O)OCCCC [Adimoll DB, di-n-Butyl adipate] | 98.9 | 97.5 | 89.8 |  |  |  |  |
| CC(=O)OCC(COC(C)=O)OC(C)=O [Triacetin, Glycerin triacetate] | 98.3 |  |  | 69.4* % | 97.9 | 96.2 | 90.8 |
